How the values were obtained:
[1] = Metabolic stability of JP-1366 in human hepatocytes; assay type: in vitro ADME; settings: cryopreserved human hepatocytes
Method: (§1) According to the manufacturer’s protocol, cryopreserved human, dog, monkey, mouse, and rat hepatocytes were purified and recovered. […] The metabolic reaction in each sample well was quenched by adding 120 μL of ice-cold acetonitrile.
(§2) Log-transformed relative responses of JP-1366 were plotted against incubation time, thereby obtaining the elimination slope (k) from the linear regression analysis. […] (1) t1 /2(min)=ln2/kelimination slope (2) Clint(mL/min/kg)=ln2/t1/2×mL incubation/hepatocyte (10^6 cells)×B×10^6 cells/g liver×A g liver/kg BW (3) Clhep(mL/min/kg)=Qh×Clint/Qh+Clint (4) HER=Clhep/Qh
(§3) Here, A means the liver weight parameters and has values of 25.7, 32, 30, 87.5, and 40; B means the cell number parameters and has values of 139, 215, 120, 135, and 117; Qh represents hepatic blood flow and has values of 20.7, 30.9, 43.6, 90, and 55.2 mL/min/kg for humans, dogs, monkeys, mice, and rats, respectively. Hepatic extraction ratios (HERs) of ≤0.25, 0.25–0.75, and ≥0.75 were regarded as low, moderate, and high, respectively.

human hepatocytes = assay: as above; assay type: in vitro ADME; settings: human hepatocytes
Method: as §1, §2, §3

[2] = Metabolic stability of JP-1366 in dog hepatocytes; assay type: in vitro ADME; settings: cryopreserved dog hepatocytes
Method: as §1, §2, §3

dog hepatocytes = assay: Metabolic stability of JP-1366 in dog hepatocytes; assay type: in vitro ADME; settings: dog hepatocytes
Method: as §1, §2, §3

[3] = Metabolic stability of JP-1366 in monkey hepatocytes; assay type: in vitro ADME; settings: cryopreserved monkey hepatocytes
Method: as §1, §2, §3

monkey hepatocytes = assay: as above; assay type: in vitro ADME; settings: monkey hepatocytes
Method: as §1, §2, §3

[4] = Metabolic stability of JP-1366 in rat hepatocytes; assay type: in vitro ADME; settings: cryopreserved rat hepatocytes
Method: as §1, §2, §3

rat hepatocytes = assay: Metabolic stability of JP-1366 in rat hepatocytes; assay type: in vitro ADME; settings: rat hepatocytes
Method: as §1, §2, §3

MT1 = MT1 (Homo sapiens, UniProt P48039); assay: BioPrint profiling, MT1; settings: BioPrint profiling (Eurofins CEREP)
Text: However, the involvement of multiple metabolizing enzymes such as CYP1A2, CYP2C9/19, CYP1A2, and CYP2D6 with a minor contribution in the formation of M1, M6, M19, and M21 and the involvement of UGT1A1 and UGT2B7 in the formation of M15 from M1 and the formation of 23 metabolites might reduce the risk of drug–drug interaction potential mediated by a single metabolizing enzyme and a main metabolite. Additionally, it may reduce the intersubject variability caused by genetic variations in these metabolizing enzymes.

gastric acid secretion = settings: lumen-perfused rat model, among JP-1366, vonoprazan, and tegoprazan; cited from earlier work
[5] = test system: histamine-stimulated gastric acid secretion; design: method as in PMID 36504556; settings: Heidenhain pouch dog model; cited from earlier work
GERD lesion = settings: rats, compared with vonoprazan; cited from earlier work
MATE2K = MATE2K (Homo sapiens, UniProt Q86VL8); assay: Uptake into HEK293 cells expressing MATE2K; settings: for Uptake Rate / Fold-Change: 6 μM, HEK293-MATE2K; for Substrate: MATE2K; for Fold-Change: vs HEK293-mock
[6] = molecular target: T1, human cDNA-expressed CYP1A2 (Homo sapiens, UniProt P05177); assay: Enzyme kinetics of JP-1366 metabolism in cDNA-expressed CYP1A2; assay type: in vitro ADME
T1 construct: purchased Corning Life Sciences
T1 sequence (P05177 1-516): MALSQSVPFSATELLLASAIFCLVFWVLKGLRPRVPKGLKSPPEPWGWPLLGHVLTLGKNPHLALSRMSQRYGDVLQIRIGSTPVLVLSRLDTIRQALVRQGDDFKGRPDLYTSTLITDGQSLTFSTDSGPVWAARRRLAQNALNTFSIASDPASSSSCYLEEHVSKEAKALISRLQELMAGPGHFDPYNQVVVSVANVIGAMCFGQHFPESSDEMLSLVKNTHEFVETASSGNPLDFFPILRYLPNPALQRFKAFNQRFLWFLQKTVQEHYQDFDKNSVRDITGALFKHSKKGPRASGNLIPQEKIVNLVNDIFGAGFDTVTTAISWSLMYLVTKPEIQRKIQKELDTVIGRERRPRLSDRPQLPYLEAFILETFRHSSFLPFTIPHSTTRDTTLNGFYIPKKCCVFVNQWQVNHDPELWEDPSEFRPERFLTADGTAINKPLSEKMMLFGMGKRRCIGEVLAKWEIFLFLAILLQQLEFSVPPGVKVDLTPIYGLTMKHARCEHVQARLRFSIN
Method: (§4) The reaction was initiated by adding 5 μL of NADPH-generating system in triplicate, and the mixture was further incubated for 30 min at 37 °C in a shaking water bath.
(§5) The concentrations of the metabolites were quantitated, and their formation rates (pmol/mg protein/min) were calculated by dividing the amounts of metabolites formed from the incubation with human liver microsomes and human cDNA-expressed CYP or UGT enzymes by the incubation time.

[7] = molecular target: T2, human cDNA-expressed CYP3A4 (Homo sapiens, UniProt P08684); assay: Enzyme kinetics of JP-1366 metabolism in cDNA-expressed CYP3A4; assay type: in vitro ADME
T2 construct: purchased Corning Life Sciences
Method: as §4, §5

[8] = test system: human liver microsomes (HLM); assay: Enzyme kinetics of JP-1366 metabolism in human liver microsomes; assay type: in vitro ADME
Method: as §4, §5

CYP3A4/5 = assay: Combined contribution of CYP3A4/5 to formation of major JP-1366 metabolites; assay type: in vitro ADME, human; settings: sum of CYP3A4 and CYP3A5 contributions
Method: as §4, §5

H^+/K^+-ATPase = H^+/K^+-ATPase (Homo sapiens, UniProt P20648); settings: read-out: IC50 for the H^+/K^+-ATPase inhibition; cited from earlier work
[9] = formation of the labelled metabolite from JP-1366, CYP1A2
[10] = formation of the labelled metabolite from JP-1366, CYP3A4

Sequence of MATE2K (Q86VL8 1-566 isoform Q86VL8-3): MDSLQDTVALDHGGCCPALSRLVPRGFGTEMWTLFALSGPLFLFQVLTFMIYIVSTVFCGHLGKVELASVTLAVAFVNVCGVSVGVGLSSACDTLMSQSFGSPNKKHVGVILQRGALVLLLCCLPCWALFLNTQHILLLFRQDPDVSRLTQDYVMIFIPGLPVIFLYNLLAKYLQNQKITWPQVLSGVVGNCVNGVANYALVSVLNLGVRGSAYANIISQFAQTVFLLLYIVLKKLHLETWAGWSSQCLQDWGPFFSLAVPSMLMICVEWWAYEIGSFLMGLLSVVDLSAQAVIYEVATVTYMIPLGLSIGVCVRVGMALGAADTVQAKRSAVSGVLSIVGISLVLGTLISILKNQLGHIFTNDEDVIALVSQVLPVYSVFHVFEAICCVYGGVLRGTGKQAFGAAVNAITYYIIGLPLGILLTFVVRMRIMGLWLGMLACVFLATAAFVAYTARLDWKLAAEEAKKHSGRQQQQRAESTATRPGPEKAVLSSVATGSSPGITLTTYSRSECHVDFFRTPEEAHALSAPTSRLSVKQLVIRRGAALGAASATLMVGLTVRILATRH
T2 sequence (P08684 whole entry): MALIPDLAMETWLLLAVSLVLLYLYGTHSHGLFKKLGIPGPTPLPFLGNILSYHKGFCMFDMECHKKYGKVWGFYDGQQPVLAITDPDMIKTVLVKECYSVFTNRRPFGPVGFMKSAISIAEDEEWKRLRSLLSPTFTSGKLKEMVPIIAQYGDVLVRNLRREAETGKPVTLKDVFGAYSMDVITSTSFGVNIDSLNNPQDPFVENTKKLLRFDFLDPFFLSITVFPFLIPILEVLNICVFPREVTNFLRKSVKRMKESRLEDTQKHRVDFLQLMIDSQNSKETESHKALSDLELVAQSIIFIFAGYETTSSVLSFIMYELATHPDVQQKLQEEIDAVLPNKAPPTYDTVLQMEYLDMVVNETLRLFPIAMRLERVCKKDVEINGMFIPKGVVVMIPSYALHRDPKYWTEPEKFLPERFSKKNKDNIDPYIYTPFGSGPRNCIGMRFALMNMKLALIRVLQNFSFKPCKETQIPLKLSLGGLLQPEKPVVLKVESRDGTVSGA
Sequence of H^+/K^+-ATPase (P20648 whole entry): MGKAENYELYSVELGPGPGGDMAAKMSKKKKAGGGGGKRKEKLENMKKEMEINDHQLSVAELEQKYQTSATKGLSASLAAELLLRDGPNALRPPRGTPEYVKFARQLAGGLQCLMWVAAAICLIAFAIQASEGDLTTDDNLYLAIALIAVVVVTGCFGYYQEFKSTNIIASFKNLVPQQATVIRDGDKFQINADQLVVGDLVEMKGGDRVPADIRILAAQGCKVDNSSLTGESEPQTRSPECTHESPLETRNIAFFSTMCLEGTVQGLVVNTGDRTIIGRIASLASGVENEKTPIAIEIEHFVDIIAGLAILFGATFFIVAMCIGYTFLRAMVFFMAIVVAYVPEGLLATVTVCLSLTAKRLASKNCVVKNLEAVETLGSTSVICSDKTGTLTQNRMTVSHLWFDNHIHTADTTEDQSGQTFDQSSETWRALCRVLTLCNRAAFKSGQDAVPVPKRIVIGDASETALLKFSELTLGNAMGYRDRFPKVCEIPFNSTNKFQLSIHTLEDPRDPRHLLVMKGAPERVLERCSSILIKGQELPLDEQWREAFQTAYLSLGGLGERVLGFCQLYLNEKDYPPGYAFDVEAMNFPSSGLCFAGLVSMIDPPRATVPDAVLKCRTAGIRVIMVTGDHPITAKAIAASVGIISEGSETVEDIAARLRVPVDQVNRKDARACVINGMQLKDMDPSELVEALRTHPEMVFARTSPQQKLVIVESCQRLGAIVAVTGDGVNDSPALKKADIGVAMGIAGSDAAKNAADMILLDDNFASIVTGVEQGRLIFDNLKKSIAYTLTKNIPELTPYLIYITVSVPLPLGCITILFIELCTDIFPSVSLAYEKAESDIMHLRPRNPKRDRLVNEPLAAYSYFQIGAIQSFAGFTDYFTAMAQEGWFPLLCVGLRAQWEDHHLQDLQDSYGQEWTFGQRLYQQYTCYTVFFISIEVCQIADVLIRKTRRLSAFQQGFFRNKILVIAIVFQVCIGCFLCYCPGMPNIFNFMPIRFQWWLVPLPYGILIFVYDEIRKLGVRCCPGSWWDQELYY
Sequence of H^+/K^+-ATPase (P51164 whole entry partner): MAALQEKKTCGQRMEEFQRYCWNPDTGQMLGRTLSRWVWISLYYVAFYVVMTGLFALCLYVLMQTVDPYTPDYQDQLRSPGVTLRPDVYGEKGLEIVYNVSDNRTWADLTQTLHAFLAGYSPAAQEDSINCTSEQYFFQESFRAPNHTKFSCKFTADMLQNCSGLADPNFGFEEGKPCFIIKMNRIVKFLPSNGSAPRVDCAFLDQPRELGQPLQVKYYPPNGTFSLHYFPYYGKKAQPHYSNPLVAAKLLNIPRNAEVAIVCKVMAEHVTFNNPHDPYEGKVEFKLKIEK
Sequence of MT1 (P48039 whole entry): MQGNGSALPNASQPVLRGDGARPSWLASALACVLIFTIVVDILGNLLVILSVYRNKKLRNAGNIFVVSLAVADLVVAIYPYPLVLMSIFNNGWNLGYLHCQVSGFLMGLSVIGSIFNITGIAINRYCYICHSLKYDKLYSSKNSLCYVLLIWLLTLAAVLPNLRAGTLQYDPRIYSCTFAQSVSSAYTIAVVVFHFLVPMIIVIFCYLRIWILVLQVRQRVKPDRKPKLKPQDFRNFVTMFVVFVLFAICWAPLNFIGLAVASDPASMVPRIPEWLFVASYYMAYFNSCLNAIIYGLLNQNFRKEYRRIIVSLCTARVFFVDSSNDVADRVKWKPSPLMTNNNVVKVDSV

Cc1cccc(C)c1CNc1cc(C(=O)N2CCC2)cn2c(C)c(C)nc12 [JP-1366, 1-azetidinyl(8-(((2,6-dimethylphenyl)methyl)amino)-2,3-dimethylimidazo(1,2-a)pyridin-6-yl)methanone]
CLint scaled at 1 µM ([1]; human hepatocytes, scaled with physiological parameters): 77.5 mL/min/kg | half-life at 1 µM ([1]; human): 63.9 min | CLhep (human hepatocytes): 16.3 mL/min/kg | HER (human hepatocytes): 0.79 | CLint scaled at 1 µM ([2]; dog hepatocytes, scaled with physiological parameters): 150 mL/min/kg | half-life at 1 µM ([2]; dog): 63.5 min | CLhep (dog hepatocytes): 25.6 mL/min/kg | HER (dog hepatocytes): 0.83 | CLint scaled at 1 µM ([3]; monkey hepatocytes, scaled with physiological parameters): 110 mL/min/kg | half-life at 1 µM ([3]; monkey): 48.4 min | CLhep (monkey hepatocytes): 31.1 mL/min/kg | HER (monkey hepatocytes): 0.72 | CLint scaled at 1 µM ([4]; rat hepatocytes, scaled with physiological parameters): 138 mL/min/kg | half-life at 1 µM ([4]; rat): 47.1 min | CLhep (rat hepatocytes): 39.4 mL/min/kg | HER (rat hepatocytes): 0.71 | IC50 (MT1): 870 nM | gastric acid secretion inhibitory effect (gastric acid secretion): fastest-acting and superior gastric acid secretion inhibitory effect | inhibition of histamine-stimulated gastric acid secretion [5]: equal to or higher than vonoprazan | GERD lesion inhibition rates (GERD lesion): greater GERD lesion inhibition rates | Uptake Rate (MATE2K; cimetidine 100 μM): 72.81 ± 3.33 pmol/min/10^5 Cells | Uptake Rate (MATE2K; control): 59.19 ± 3.66 pmol/min/10^5 Cells | Substrate (MATE2K): No

Cc1cccc(CO)c1CNc1cc(C(=O)N2CCC2)cn2c(C)c(C)nc12 [M1, azetidin-1-yl(8-((2-(hydroxymethyl)-6-methyl-benzyl)amino)-2,3-dimethylimidazo[1,2-a]pyridin-6-yl)methanone]
CLint [6, 9]: 0.0014 μL/min/pmol CYP | n (Hill coefficient) [6, 9]: 0.6 | Contribution (%) ([6]; relative contribution of CYP1A2 to formation of the labelled metabolite): 0.1% | CLint [7, 10]: 0.35 μL/min/pmol CYP | n (Hill coefficient) [7, 10]: 2.9 | Contribution (%) ([7]; relative contribution of CYP3A4 to formation of the labelled metabolite): 17.3% | Vmax ([8]; formation of the labelled metabolite from JP-1366, HLM): 826.1 pmol/min/mg protein | Ki ([8]; substrate inhibition kinetics, formation of the labelled metabolite, HLM): 96500 nM | contribution of CYP3A4/5 to formation of the metabolite from JP-1366 (CYP3A4/5): 85.9% | IC50 (H^+/K^+-ATPase): 66.5 nM | Uptake Rate (MATE2K; cimetidine 100 μM): 72.81 ± 3.33 pmol/min/10^5 Cells | Fold-Change (MATE2K; cimetidine 100 μM): 1.4 | Uptake Rate (MATE2K; control): 59.19 ± 3.66 pmol/min/10^5 Cells | Fold-Change (MATE2K; control): 1.1 | Substrate (MATE2K): No

Reference: paper PMC11207335, “In Vitro Metabolism and Transport Characteristics of Zastaprazan” (Pharmaceutics, 2024)
